Assay results as given in paper PMC9186362, “Design and biological evaluation of substituted 5,7-dihydro-6H-indolo[2,3-c]quinolin-6-one as novel selective Haspin inhibitors” (Journal of Enzyme Inhibition and Medicinal Chemistry, 2022).

Assays:
[1] = biological target: MET D1228H (Homo sapiens, UniProt P08581, D1228H); assay: LanthaScreen Binding - Eu-anti-GST; settings: read-out: Percentage of inhibition
Procedure, shortened: (§1)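 Percent inhibition values come from a one-concentration (1 μM) profiling run covering a wide set of kinases.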

[2] = biological target: T1, EGFR (ErbB1) d747-749 A750P (Homo sapiens, UniProt P00533, A750P/DEL747-749); assay: LanthaScreen Binding - Eu-anti-GST; settings: read-out: Percentage of inhibition
T1 construct: purchased Life Technologies
Procedure, shortened: as §1

[3] = biological target: ABL1 H396P (Homo sapiens, UniProt P00519, H396P); assay: LanthaScreen Binding - Eu-anti-GST; settings: read-out: Percentage of inhibition
Procedure, shortened: as §1

[4] = biological target: T2, EGFR (ErbB1) d746-750 (Homo sapiens, UniProt P00533, DEL746-750); assay: LanthaScreen Binding - Eu-anti-GST; settings: read-out: Percentage of inhibition
T2 construct: purchased Life Technologies
Procedure, shortened: as §1

[5] = biological target: ICK (Homo sapiens, UniProt Q9UPZ9); assay: LanthaScreen Binding - Eu-anti-GST; settings: read-out: Percentage of inhibition
Procedure, shortened: as §1

[6] = biological target: T3, NEK8 (Homo sapiens, UniProt Q86SG6); assay: LanthaScreen Binding - Eu-anti-GST; settings: read-out: Percentage of inhibition
T3 construct: purchased Life Technologies (SelectScreen Whole Panel service)
Procedure, shortened: as §1

[7] = biological target: T4, CASK (Homo sapiens, UniProt O14936); assay: LanthaScreen Binding - Eu-anti-GST; settings: read-out: Percentage of inhibition
T4 construct: purchased Life Technologies (SelectScreen Whole Panel)
Procedure, shortened: as §1

[8] = biological target: T5, MAP3K5 (ASK1) (Homo sapiens, UniProt Q99683); assay: LanthaScreen Binding - Eu-anti-GST; settings: read-out: Percentage of inhibition
T5 construct: purchased Life Technologies
Procedure, shortened: as §1

[9] = biological target: T6, ALK C1156Y (Homo sapiens, UniProt Q9UM73, C1156Y); assay: LanthaScreen Binding - Eu-anti-GST; settings: read-out: Percentage of inhibition
T6 construct: purchased Life Technologies
Procedure, shortened: as §1

[10] = biological target: T7, MYLK4 (Homo sapiens, UniProt Q86YV6); assay: LanthaScreen Binding - Eu-anti-GST; settings: read-out: Percentage of inhibition
T7 construct: purchased Life Technologies (SelectScreen Whole Panel)
Procedure, shortened: as §1

[11] = biological target: T8, RET G691S (Homo sapiens, UniProt P07949, G691S); assay: LanthaScreen Binding - Eu-anti-GST; settings: read-out: Percentage of inhibition
T8 construct: purchased Life Technologies (SelectScreen service)
T8 sequence (P07949 29-1114 G691S): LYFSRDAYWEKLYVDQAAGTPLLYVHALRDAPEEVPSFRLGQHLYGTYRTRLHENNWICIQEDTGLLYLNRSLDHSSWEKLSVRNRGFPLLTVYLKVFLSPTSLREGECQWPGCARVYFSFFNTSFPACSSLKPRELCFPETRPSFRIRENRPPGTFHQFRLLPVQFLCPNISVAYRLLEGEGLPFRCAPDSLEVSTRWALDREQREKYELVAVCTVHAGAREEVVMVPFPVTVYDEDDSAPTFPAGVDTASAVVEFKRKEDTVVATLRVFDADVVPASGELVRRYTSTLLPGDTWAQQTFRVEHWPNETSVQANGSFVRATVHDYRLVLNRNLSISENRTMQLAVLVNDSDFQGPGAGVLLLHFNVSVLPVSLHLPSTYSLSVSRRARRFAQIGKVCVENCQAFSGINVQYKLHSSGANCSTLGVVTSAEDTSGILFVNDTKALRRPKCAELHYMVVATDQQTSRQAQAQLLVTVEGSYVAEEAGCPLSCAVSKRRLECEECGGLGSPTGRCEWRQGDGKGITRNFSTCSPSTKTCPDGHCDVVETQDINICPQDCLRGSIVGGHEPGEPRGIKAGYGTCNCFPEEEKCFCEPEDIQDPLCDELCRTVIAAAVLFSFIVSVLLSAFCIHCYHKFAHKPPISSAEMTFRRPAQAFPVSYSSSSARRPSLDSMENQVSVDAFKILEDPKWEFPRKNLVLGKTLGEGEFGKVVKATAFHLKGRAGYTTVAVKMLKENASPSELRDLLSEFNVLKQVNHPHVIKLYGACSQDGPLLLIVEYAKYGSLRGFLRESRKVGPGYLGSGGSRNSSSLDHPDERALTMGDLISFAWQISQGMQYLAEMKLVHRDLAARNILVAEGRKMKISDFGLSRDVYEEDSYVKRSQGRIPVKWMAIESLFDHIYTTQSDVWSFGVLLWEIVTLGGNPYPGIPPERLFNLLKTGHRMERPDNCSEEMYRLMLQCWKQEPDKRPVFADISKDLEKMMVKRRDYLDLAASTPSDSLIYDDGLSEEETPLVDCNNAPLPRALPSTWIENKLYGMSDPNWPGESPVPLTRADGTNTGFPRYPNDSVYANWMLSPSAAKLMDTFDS
Procedure, shortened: as §1

[12] = biological target: T9, MERTK (cMER) A708S (Homo sapiens, UniProt Q12866, A708S); assay: LanthaScreen Binding - Eu-anti-GST; settings: read-out: Percentage of inhibition
T9 construct: purchased Life Technologies
Procedure, shortened: as §1

[13] = biological target: T10, CDC7/DBF4 (Homo sapiens, UniProt O00311); assay: LanthaScreen Binding - Eu-anti-GST; settings: read-out: Percentage of inhibition
T10 construct: purchased Life Technologies (SelectScreen service)
Procedure, shortened: as §1

[14] = biological target: T11, CDK3/cyclin E1 (Homo sapiens, UniProt Q00526); assay: LanthaScreen Binding - Eu-anti-GST; settings: read-out: Percentage of inhibition
T11 construct: purchased Life Technologies (SelectScreen Whole Panel)
T11 sequence (Q00526 whole entry): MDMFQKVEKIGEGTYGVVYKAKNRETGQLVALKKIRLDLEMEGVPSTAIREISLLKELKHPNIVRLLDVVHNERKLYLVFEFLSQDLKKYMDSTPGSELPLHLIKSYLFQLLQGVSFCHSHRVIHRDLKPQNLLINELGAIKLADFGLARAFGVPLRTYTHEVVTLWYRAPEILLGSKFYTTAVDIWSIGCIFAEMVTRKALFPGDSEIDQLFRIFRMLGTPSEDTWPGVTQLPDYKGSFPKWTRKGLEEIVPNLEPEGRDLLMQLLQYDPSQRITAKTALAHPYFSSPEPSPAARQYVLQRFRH
T11 sequence (P24864 whole entry partner): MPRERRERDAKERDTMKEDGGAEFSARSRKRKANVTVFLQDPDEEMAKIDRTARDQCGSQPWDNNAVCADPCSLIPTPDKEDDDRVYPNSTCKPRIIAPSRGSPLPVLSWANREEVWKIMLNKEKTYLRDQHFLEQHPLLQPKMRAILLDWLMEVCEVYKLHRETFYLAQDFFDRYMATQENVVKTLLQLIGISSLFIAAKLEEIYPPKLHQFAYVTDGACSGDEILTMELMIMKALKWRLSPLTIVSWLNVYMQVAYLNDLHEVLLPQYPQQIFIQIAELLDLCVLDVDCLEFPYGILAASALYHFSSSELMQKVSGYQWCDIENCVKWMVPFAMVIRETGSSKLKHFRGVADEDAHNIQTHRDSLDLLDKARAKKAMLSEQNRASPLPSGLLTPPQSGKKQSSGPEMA
Procedure, shortened: as §1

[15] = biological target: MAP3K10 (MLK2) (Homo sapiens, UniProt Q02779); assay: LanthaScreen Binding - Eu-anti-GST; settings: read-out: Percentage of inhibition
Sequence of MAP3K10 (MLK2) (Q02779 whole entry): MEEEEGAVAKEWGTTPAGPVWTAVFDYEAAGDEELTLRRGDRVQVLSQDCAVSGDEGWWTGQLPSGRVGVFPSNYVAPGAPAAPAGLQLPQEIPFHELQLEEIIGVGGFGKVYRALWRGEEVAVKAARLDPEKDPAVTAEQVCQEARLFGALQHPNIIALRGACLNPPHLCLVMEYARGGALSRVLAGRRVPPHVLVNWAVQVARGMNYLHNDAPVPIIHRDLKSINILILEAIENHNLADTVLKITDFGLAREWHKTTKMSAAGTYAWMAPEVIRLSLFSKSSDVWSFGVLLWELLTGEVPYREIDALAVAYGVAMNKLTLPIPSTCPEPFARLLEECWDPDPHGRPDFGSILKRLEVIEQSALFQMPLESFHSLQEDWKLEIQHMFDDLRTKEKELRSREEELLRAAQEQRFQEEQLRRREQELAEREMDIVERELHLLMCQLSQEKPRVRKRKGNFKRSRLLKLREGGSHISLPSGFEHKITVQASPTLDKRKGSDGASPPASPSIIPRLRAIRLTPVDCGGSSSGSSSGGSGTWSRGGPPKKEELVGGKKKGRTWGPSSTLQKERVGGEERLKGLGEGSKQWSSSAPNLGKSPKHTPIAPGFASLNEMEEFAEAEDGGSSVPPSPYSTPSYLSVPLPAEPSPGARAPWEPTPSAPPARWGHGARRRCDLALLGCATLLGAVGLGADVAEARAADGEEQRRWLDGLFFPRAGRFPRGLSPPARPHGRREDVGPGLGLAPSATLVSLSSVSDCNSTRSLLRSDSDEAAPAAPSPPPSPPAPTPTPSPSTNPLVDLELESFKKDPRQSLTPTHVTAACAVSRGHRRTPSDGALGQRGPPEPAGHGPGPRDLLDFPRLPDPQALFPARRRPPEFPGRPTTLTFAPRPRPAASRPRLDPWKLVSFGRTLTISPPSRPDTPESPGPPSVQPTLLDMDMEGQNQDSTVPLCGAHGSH
Procedure, shortened: as §1

[16] = biological target: T12, RET M918T (Homo sapiens, UniProt P07949, M918T); assay: LanthaScreen Binding - Eu-anti-GST; settings: read-out: Percentage of inhibition
T12 construct: purchased Life Technologies
T12 sequence (P07949 29-1114 M918T): as the sequence (P07949 29-1114 G691S) above, with S663G, M890T counted along it
Procedure, shortened: as §1

[17] = biological target: T13, FYN A (Homo sapiens, UniProt P06241); assay: LanthaScreen Binding - Eu-anti-GST; settings: read-out: Percentage of inhibition
T13 construct: purchased Life Technologies (SelectScreen Whole Panel service)
Procedure, shortened: as §1

[18] = biological target: FGFR1 V561M (Homo sapiens, UniProt P11362, V561M); assay: LanthaScreen Binding - Eu-anti-GST; settings: read-out: Percentage of inhibition
Procedure, shortened: as §1

[19] = biological target: T14, STK32C (YANK3) (Homo sapiens, UniProt Q86UX6); assay: LanthaScreen Binding - Eu-anti-GST; settings: read-out: Percentage of inhibition
T14 construct: purchased Life Technologies (SelectScreen Whole Panel)
Procedure, shortened: as §1

[20] = biological target: T15, HCK (Homo sapiens, UniProt P08631); assay: SelectScreen ZLYTE; format: biochemical; settings: ATP Km, read-out: Percentage of inhibition
T15 construct: purchased Life Technologies
T15 sequence (P08631 whole entry): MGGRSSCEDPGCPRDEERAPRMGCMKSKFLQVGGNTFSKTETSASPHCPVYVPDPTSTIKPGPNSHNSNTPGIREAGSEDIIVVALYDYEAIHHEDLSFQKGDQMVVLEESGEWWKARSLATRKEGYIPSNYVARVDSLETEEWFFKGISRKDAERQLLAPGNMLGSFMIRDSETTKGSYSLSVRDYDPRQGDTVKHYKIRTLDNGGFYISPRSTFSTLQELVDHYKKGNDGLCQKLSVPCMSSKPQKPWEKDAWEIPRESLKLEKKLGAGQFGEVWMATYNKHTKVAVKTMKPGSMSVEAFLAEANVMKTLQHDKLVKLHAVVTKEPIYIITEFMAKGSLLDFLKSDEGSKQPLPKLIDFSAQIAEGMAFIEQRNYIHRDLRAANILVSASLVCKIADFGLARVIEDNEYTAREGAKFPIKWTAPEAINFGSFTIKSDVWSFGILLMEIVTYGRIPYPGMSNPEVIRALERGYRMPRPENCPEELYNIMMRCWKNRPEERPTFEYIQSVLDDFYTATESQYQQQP
Experimental: (§2) We further evaluated the selectivity profile of compound 55 on a larger panel of kinases (SelectScreen Whole Panel, Life Technologies). The inhibition profile of 55, evaluated at 1 μM, is depicted on a dendrogram on Figure 3 where kinases inhibited by a minimum of 80% are shown. A full list of the kinases tested is shown on Table S1 in supplementary information.

[21] = biological target: T16, STK3 (MST2) (Homo sapiens, UniProt Q13188); assay: SelectScreen ZLYTE; format: biochemical; settings: ATP Km, read-out: Percentage of inhibition
T16 construct: purchased Life Technologies (SelectScreen Whole Panel)
Experimental: as §2

[22] = biological target: T17, JAK2 JH1 JH2 V617F (Homo sapiens, UniProt O60674, V617F); assay: SelectScreen ZLYTE; format: biochemical; settings: ATP Km, read-out: Percentage of inhibition
T17 construct: JAK2 JH1 JH2; purchased Life Technologies
Experimental: as §2

[23] = biological target: T18, LYN A (Homo sapiens, UniProt P07948); assay: SelectScreen ZLYTE; format: biochemical; settings: ATP Km, read-out: Percentage of inhibition
T18 construct: purchased Life Technologies (SelectScreen Whole Panel)
Experimental: as §2

[24] = biological target: T19, MAPK14 (p38 alpha) (Homo sapiens, UniProt Q16539); assay: SelectScreen ZLYTE; format: biochemical; settings: ATP 100 µM, read-out: Percentage of inhibition
T19 construct: purchased Life Technologies (SelectScreen Whole Panel service)
Experimental: as §2

[25] = biological target: T20, IKBKE (IKK epsilon) (Homo sapiens, UniProt Q14164); assay: SelectScreen ZLYTE; format: biochemical; settings: ATP Km, read-out: Percentage of inhibition
T20 construct: purchased Life Technologies (SelectScreen Whole Panel service)
Experimental: as §2

[26] = biological target: T21, MAPKAPK3 (Homo sapiens, UniProt Q16644); assay: SelectScreen ZLYTE; format: biochemical; settings: ATP Km, read-out: Percentage of inhibition
T21 construct: purchased Life Technologies
T21 sequence (Q16644 whole entry): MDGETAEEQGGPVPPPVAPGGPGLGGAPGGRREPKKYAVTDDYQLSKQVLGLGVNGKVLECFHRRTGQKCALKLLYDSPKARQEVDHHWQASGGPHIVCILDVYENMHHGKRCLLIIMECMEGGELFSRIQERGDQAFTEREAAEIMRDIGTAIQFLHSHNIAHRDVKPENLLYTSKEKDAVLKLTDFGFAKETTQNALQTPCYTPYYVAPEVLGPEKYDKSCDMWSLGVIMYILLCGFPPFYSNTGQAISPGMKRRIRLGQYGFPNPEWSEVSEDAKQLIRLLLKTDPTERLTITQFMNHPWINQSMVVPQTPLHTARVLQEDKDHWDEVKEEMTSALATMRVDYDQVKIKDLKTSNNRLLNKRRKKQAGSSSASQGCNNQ
Experimental: as §2

[27] = biological target: T22, MAP4K5 (KHS1) (Homo sapiens, UniProt Q9Y4K4); assay: SelectScreen ZLYTE; format: biochemical; settings: ATP Km, read-out: Percentage of inhibition
T22 construct: purchased Life Technologies (SelectScreen service)
Experimental: as §2

[28] = biological target: T23, PASK (Homo sapiens, UniProt Q96RG2); assay: SelectScreen ZLYTE; format: biochemical; settings: ATP Km, read-out: Percentage of inhibition
T23 construct: purchased Life Technologies (SelectScreen Whole Panel)
Experimental: as §2

[29] = biological target: T24, STK23 (MSSK1) (Homo sapiens, UniProt Q9UPE1); assay: SelectScreen ZLYTE; format: biochemical; settings: ATP Km, read-out: Percentage of inhibition
T24 construct: purchased Life Technologies
Experimental: as §2

[30] = biological target: BMX (Homo sapiens, UniProt P51813); assay: SelectScreen ZLYTE; format: biochemical; settings: ATP Km, read-out: Percentage of inhibition
Experimental: as §2

[31] = biological target: CSNK1G1 (CK1 gamma 1) (Homo sapiens, UniProt Q9HCP0); assay: SelectScreen ZLYTE; format: biochemical; settings: ATP Km, read-out: Percentage of inhibition
Experimental: as §2

[32] = biological target: T25, PAK7 (KIAA1264) (Homo sapiens, UniProt Q9P286); assay: SelectScreen ZLYTE; format: biochemical; settings: ATP Km, read-out: Percentage of inhibition
T25 construct: purchased Life Technologies (SelectScreen)
Experimental: as §2

[33] = tested on: U-2 OS, HCT116, MDA-MB231, SH-SY5Y and RPE-1 cell lines; assay: Cell viability primary screen at 25 μM; format: cell-based, human; settings: 48 h
Experimental: HCT116 cells were cultured in McCoy’s medium. SH-SY5Y, MDA-MB231 and U-2 OS cells were cultured in Dulbecco's modified Eagle's medium (DMEM) and hTERT RPE-1 cells in DMEM:F12 medium. All media were supplemented with 10% foetal calf serum and cells were cultured at 37 °C in a 5% CO2 humidified atmosphere.
Cell viability was then assessed using the CellTiter96 AQueous cell proliferation assay from Promega according to the manufacturer’s instructions. Each experiment was done in triplicate and EC50 were determined from the dose-response curves according to the signal given by the control (0.1% DMSO) set at 100% viability using Prism GraphPad software.

Sequence of MET D1228H (P08581 25-1390 D1228H): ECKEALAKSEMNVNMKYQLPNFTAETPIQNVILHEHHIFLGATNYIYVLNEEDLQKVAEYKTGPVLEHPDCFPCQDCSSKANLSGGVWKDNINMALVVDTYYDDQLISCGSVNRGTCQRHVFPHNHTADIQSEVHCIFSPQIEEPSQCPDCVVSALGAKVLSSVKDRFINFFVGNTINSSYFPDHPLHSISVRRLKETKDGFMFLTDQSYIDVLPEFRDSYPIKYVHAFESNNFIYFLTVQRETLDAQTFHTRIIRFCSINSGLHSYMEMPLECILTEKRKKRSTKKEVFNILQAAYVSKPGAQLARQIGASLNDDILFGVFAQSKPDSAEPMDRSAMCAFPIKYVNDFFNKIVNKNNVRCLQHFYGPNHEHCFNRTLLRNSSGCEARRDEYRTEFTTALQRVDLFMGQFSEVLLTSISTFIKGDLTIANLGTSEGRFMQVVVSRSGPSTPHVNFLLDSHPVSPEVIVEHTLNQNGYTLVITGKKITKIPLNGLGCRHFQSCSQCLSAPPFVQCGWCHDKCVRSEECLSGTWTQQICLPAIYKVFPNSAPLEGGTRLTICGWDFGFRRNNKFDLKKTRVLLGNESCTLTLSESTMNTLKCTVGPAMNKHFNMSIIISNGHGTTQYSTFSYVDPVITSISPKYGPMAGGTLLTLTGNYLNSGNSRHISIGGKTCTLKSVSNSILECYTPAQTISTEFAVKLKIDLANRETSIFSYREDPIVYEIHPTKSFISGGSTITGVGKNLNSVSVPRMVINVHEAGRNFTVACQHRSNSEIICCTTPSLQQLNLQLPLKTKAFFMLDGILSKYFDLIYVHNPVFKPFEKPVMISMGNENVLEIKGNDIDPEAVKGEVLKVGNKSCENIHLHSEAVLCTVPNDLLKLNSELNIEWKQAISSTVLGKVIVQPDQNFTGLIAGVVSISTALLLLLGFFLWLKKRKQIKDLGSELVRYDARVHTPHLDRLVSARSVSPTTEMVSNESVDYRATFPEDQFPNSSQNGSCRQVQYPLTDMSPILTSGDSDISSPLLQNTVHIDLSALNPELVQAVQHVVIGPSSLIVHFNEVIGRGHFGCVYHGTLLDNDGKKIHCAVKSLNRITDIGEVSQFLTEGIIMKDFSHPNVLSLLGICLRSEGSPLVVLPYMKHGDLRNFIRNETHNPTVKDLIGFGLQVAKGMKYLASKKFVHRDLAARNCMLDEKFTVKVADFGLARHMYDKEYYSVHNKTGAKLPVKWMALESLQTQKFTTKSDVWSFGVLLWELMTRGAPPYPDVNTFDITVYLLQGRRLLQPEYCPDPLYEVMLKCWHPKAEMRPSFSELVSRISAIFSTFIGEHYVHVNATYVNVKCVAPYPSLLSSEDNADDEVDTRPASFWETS

Structure (SMILES): COc1ccc2[nH]c3c(=O)[nH]c4ccc(O)cc4c3c2c1 [Compound 55, 2-Hydroxy-10-methoxy-5,7-dihydro-6H-indolo[2,3-c]quinolin-6-one]
- inhibition at 1 µM [1]: 14%
- inhibition at 1 µM [2]: 34%
- inhibition at 1 µM [3]: 61%
- inhibition at 1 µM [4]: 34%
- inhibition at 1 µM [5]: 57%
- inhibition at 1 µM [6]: 16%
- inhibition at 1 µM [7]: -3%
- inhibition at 1 µM [8]: 28%
- inhibition at 1 µM [9]: 34%
- inhibition at 1 µM [10]: 111%
- inhibition at 1 µM [11]: 91%
- inhibition at 1 µM [12]: 31%
- inhibition at 1 µM [13]: 83%
- inhibition at 1 µM [14]: 50%
- inhibition at 1 µM [15]: 20%
- inhibition at 1 µM [16]: 94%
- inhibition at 1 µM [17]: 45%
- inhibition at 1 µM [18]: 60%
- inhibition at 1 µM [19]: 1%
- inhibition at 1 µM [20]: 38%
- inhibition at 1 µM [21]: 99%
- inhibition at 1 µM [22]: 36%
- inhibition at 1 µM [23]: 49%
- inhibition at 1 µM [24]: 12%
- inhibition at 1 µM [25]: 17%
- inhibition at 1 µM [26]: 3%
- inhibition at 1 µM [27]: 90%
- inhibition at 1 µM [28]: 49%
- inhibition at 1 µM [29]: 4%
- inhibition at 1 µM [30]: 14%
- inhibition at 1 µM [31]: 20%
- inhibition at 1 µM [32]: 8%
- Reduction of cell viability compared to the DMSO control [33]: ≥ 75%
